Experimental data published in the supplement of paper PMC8671470.
± gives the standard deviation of the averaged measurements.

test system: Mono-Mac-6; assay: not given; settings: 72 h
Method in brief: (§1)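 The IC50 was read from log-logistic dose–response fits. Fifteen myeloid leukaemia lines were exposed for 72 h at 37 °C with 5% CO2 to five tenfold doses from 1 to 10,000 nM in duplicate. ATP luminescence, normalised to vehicle and to a 10 µM positive control, was fitted with four parameters.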

| Compound | IC50 (cell viability) [µM] |
| --- | --- |
| O=C1C(SCCO)=C(SCCO)C(=O)c2ccccc21 | 0.664 |
| Cc1nc(-c2ccccc2)sc1C(=O)Nc1ccc(S(N)(=O)=O)cc1 | > 10 |
| Cn1cc(-c2ccncc2)c(-c2ccc(OCc3ccc4ccccc4n3)cc2)n1 | > 10 |
| O=C(O)CC[N+](=O)[O-] [3-nitropropionic acid] | > 10 |
| C=CC(=O)c1ccc(O)cc1 [4-Acryloylphenol] | > 10 |
| Cc1[nH]nc(C(F)(F)F)c1Cc1sc2c(c1C(=O)N1C[C@](C)(O)CO1)c(=O)n(C)c(=O)n2C(C)C [AZD3965] | > 10 |
| O=c1cc(-c2ccccc2)oc2c1ccc1ccccc12 [Alpha-Naphtoflavone] | > 10 |

test system: NOMO-1; assay: not given; settings: 72 h
Method in brief: as §1

| Compound | IC50 (cell viability) [µM] |
| --- | --- |
| CN(CCCOc1ccc(Cc2ccccc2)cc1)CCC(=O)O | > 10 |
| Cc1c2c(=O)n(-c3ccccc3Cl)[nH]c2cc(=O)n1Cc1ccccn1 | > 10 |
| COc1ccc2c(NC(=O)Nc3cccc(C(F)(F)F)n3)ccnc2c1 | > 10 |
| O=c1cc(N2CCOCC2)oc2c(-c3ccccc3)cccc12 | 0.0252 |
| O=C1C(SCCO)=C(SCCO)C(=O)c2ccccc21 | 0.369 |
| Cc1nc(-c2ccccc2)sc1C(=O)Nc1ccc(S(N)(=O)=O)cc1 | > 10 |
| Cn1cc(-c2ccncc2)c(-c2ccc(OCc3ccc4ccccc4n3)cc2)n1 | > 10 |
| O=C(O)CC[N+](=O)[O-] [3-nitropropionic acid] | > 10 |
| C=CC(=O)c1ccc(O)cc1 [4-Acryloylphenol] | 3.44 |
| Cc1[nH]nc(C(F)(F)F)c1Cc1sc2c(c1C(=O)N1C[C@](C)(O)CO1)c(=O)n(C)c(=O)n2C(C)C [AZD3965] | > 10 |
| O=c1cc(-c2ccccc2)oc2c1ccc1ccccc12 [Alpha-Naphtoflavone] | > 10 |

test system: SHI-1; assay: not given; settings: 72 h
Method in brief: as §1

| Compound | IC50 (cell viability) [µM] |
| --- | --- |
| CN(CCCOc1ccc(Cc2ccccc2)cc1)CCC(=O)O | > 10 |
| Cc1c2c(=O)n(-c3ccccc3Cl)[nH]c2cc(=O)n1Cc1ccccn1 | > 10 |
| COc1ccc2c(NC(=O)Nc3cccc(C(F)(F)F)n3)ccnc2c1 | > 10 |
| O=c1cc(N2CCOCC2)oc2c(-c3ccccc3)cccc12 | 3.6 |
| O=C1C(SCCO)=C(SCCO)C(=O)c2ccccc21 | 0.45 |
| Cc1nc(-c2ccccc2)sc1C(=O)Nc1ccc(S(N)(=O)=O)cc1 | > 10 |
| Cn1cc(-c2ccncc2)c(-c2ccc(OCc3ccc4ccccc4n3)cc2)n1 | > 10 |
| O=C(O)CC[N+](=O)[O-] [3-nitropropionic acid] | 2.94 |
| C=CC(=O)c1ccc(O)cc1 [4-Acryloylphenol] | > 10 |
| Cc1[nH]nc(C(F)(F)F)c1Cc1sc2c(c1C(=O)N1C[C@](C)(O)CO1)c(=O)n(C)c(=O)n2C(C)C [AZD3965] | > 10 |
| O=c1cc(-c2ccccc2)oc2c1ccc1ccccc12 [Alpha-Naphtoflavone] | > 10 |

test system: THP-1; assay: not given; settings: 72 h
Method in brief: as §1

| Compound | IC50 (cell viability) [µM] |
| --- | --- |
| CN(CCCOc1ccc(Cc2ccccc2)cc1)CCC(=O)O | > 10 |
| Cc1c2c(=O)n(-c3ccccc3Cl)[nH]c2cc(=O)n1Cc1ccccn1 | > 10 |
| COc1ccc2c(NC(=O)Nc3cccc(C(F)(F)F)n3)ccnc2c1 | > 10 |
| O=c1cc(N2CCOCC2)oc2c(-c3ccccc3)cccc12 | > 10 |
| O=C1C(SCCO)=C(SCCO)C(=O)c2ccccc21 | 0.424 |
| Cc1nc(-c2ccccc2)sc1C(=O)Nc1ccc(S(N)(=O)=O)cc1 | > 10 |
| Cn1cc(-c2ccncc2)c(-c2ccc(OCc3ccc4ccccc4n3)cc2)n1 | > 10 |
| O=C(O)CC[N+](=O)[O-] [3-nitropropionic acid] | > 10 |
| C=CC(=O)c1ccc(O)cc1 [4-Acryloylphenol] | > 10 |
| Cc1[nH]nc(C(F)(F)F)c1Cc1sc2c(c1C(=O)N1C[C@](C)(O)CO1)c(=O)n(C)c(=O)n2C(C)C [AZD3965] | > 10 |
| O=c1cc(-c2ccccc2)oc2c1ccc1ccccc12 [Alpha-Naphtoflavone] | > 10 |

test system: HL-60; assay: cell viability (% survival relative to DMSO control); higher = less cytotoxic; settings: 0.001 µM; 72 h; co-treatment: AZD3965 100 nM
Method in brief: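 For each screen, HL-60 cells in RPMI 1640 with 10% FBS carried either DMSO or 100 nM of one of three metabolic inhibitors while the full library was applied at five tenfold concentrations, 1–10,000 nM, in duplicate. Plates were 384-well and were kept 72 h at 37 °C, 5% CO2. Viability, measured by CellTiter-Glo, was normalised to wells with DMSO and with 10 μM proteasome inhibitor. Where area under the curve appears, it was fitted by four-parameter log-logistic models in drc and PharmacoGx.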

| Compound | cell viability [%] |
| --- | --- |
| CN(CCCOc1ccc(Cc2ccccc2)cc1)CCC(=O)O | 98 ± 1.6 |
| COc1ccc2c(NC(=O)Nc3cccc(C(F)(F)F)n3)ccnc2c1 | 100 ± 3.6 |
| O=c1cc(N2CCOCC2)oc2c(-c3ccccc3)cccc12 | 99.5 ± 2 |
| O=C1C(SCCO)=C(SCCO)C(=O)c2ccccc21 | 102 ± 2.9 |
| Cc1nc(-c2ccccc2)sc1C(=O)Nc1ccc(S(N)(=O)=O)cc1 | 101 ± 2.2 |
| O=C(O)CC[N+](=O)[O-] [3-nitropropionic acid] | 102 ± 2.5 |
| C=CC(=O)c1ccc(O)cc1 [4-Acryloylphenol] | 104 ± 2.3 |
| Cc1[nH]nc(C(F)(F)F)c1Cc1sc2c(c1C(=O)N1C[C@](C)(O)CO1)c(=O)n(C)c(=O)n2C(C)C [AZD3965] | 92.7 ± 21 |
| O=c1cc(-c2ccccc2)oc2c1ccc1ccccc12 [Alpha-Naphtoflavone] | 103 ± 6.3 |

same assay, conditions: 0.001 µM; 72 h; co-treatment: DMSO vehicle

| Compound | cell viability [%] |
| --- | --- |
| CN(CCCOc1ccc(Cc2ccccc2)cc1)CCC(=O)O | 106 ± 1.8 |
| COc1ccc2c(NC(=O)Nc3cccc(C(F)(F)F)n3)ccnc2c1 | 101.7 ± 0.71 |
| O=c1cc(N2CCOCC2)oc2c(-c3ccccc3)cccc12 | 99.2 ± 1.9 |
| O=C1C(SCCO)=C(SCCO)C(=O)c2ccccc21 | 101 ± 6.2 |
| Cc1nc(-c2ccccc2)sc1C(=O)Nc1ccc(S(N)(=O)=O)cc1 | 103 ± 2.4 |
| O=C(O)CC[N+](=O)[O-] [3-nitropropionic acid] | 99.6 ± 5.9 |
| C=CC(=O)c1ccc(O)cc1 [4-Acryloylphenol] | 102 ± 3.4 |
| Cc1[nH]nc(C(F)(F)F)c1Cc1sc2c(c1C(=O)N1C[C@](C)(O)CO1)c(=O)n(C)c(=O)n2C(C)C [AZD3965] | 102 ± 4.2 |
| O=c1cc(-c2ccccc2)oc2c1ccc1ccccc12 [Alpha-Naphtoflavone] | 102 ± 1.3 |

same assay, conditions: 0.001 µM; 72 h; co-treatment: GSK2194069 100 nM

| Compound | cell viability [%] |
| --- | --- |
| CN(CCCOc1ccc(Cc2ccccc2)cc1)CCC(=O)O | 102.15 ± 0.037 |
| COc1ccc2c(NC(=O)Nc3cccc(C(F)(F)F)n3)ccnc2c1 | 95.4 ± 4.6 |
| O=c1cc(N2CCOCC2)oc2c(-c3ccccc3)cccc12 | 107 ± 0.78 |
| O=C1C(SCCO)=C(SCCO)C(=O)c2ccccc21 | 99.5 ± 8.8 |
| Cc1nc(-c2ccccc2)sc1C(=O)Nc1ccc(S(N)(=O)=O)cc1 | 99.3 ± 3.8 |
